Target: purified human MMP-12 enzyme (Homo sapiens, UniProt P39900)
Assay: MMP-12 FRET assay
Format: biochemical
Details: substrate 20 μM, room temperature
In short: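 Initial fluorescence rate (325/395 nm) of cleavage of MCA-Pro-Leu-Gly-Leu-Dpa(DNP)-Ala-Arg, 20 μM final, was followed for 30 min at room temperature after a 30 min enzyme–compound preincubation. Buffer: 50 mM HEPES pH 7.4, 100 mM NaCl, 5 mM CaCl2, 0.005% Brij-35, with 10% final DMSO. IC50 came from a Hill-type fit of rate versus inhibitor concentration.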

Sequence of purified human MMP-12 enzyme (P39900 106-470): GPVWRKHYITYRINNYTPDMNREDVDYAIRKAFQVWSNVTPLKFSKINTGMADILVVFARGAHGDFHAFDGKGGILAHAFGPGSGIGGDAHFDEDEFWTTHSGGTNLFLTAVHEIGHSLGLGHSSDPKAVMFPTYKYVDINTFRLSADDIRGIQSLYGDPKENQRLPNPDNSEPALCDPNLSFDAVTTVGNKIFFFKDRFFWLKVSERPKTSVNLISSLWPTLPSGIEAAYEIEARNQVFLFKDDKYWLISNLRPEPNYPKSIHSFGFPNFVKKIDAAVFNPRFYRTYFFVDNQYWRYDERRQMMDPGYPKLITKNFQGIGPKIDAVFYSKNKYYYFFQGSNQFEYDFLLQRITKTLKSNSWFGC

Row | IC50 [nM] | SMILES
1 | 14 | CC(C)[C@@H](NS(=O)(=O)c1ccc2oc3cc(-c4noc(C(F)(F)F)n4)ccc3c2c1)C(=O)O [Compound 141, (R)-3-methyl-2-(7-(5-(trifluoromethyl)-1,2,4-oxadiazol-3-yl)dibenzo[b,d]furan-2-sulfonamido)butanoic acid]
2 | 2.5 | Cc1ccc(-c2ccc3c(c2)oc2cc(S(=O)(=O)N[C@H](C(=O)O)C(C)C)ccc23)s1 [Compound 142, (S)-3-methyl-2-(7-(5-methylthiophen-2-yl)dibenzo[b,d]furan-3-sulfonamido)butanoic acid]
3 | 5.3 | CC(C)Cc1nc(-c2ccc3c(c2)oc2ccc(S(=O)(=O)N[C@@H](C(=O)O)C(C)C)cc23)no1 [Compound 149, (R)-2-(7-(5-isobutyl-1,2,4-oxadiazol-3-yl)dibenzo[b,d]furan-2-sulfonamido)-3-methylbutanoic acid]
4 | 5 | CC(C)[C@@H](NS(=O)(=O)c1ccc2oc3cc(-c4noc(-c5ccccc5)n4)ccc3c2c1)C(=O)O [Compound 150, (R)-3-methyl-2-(7-(5-phenyl-1,2,4-oxadiazol-3-yl)dibenzo[b,d]furan-2-sulfonamido)butanoic acid]
5 | < 1.5 | CC(C)[C@H](NS(=O)(=O)c1ccc2c(c1)oc1ccc(-c3nc4ccccc4s3)cc12)C(=O)O [Compound 151, (S)-2-(8-(benzo[d]thiazol-2-yl)dibenzo[b,d]furan-3-sulfonamido)-3-methylbutanoic acid]
6 | < 1.5 | CC(C)[C@H](NS(=O)(=O)c1ccc2c(c1)oc1ccc(-c3cncnc3)cc12)C(=O)O [Compound 152, (S)-3-methyl-2-(8-(pyrimidin-5-yl)dibenzo[b,d]furan-3-sulfonamido)butanoic acid]
7 | < 1.5 | COc1ncc(-c2ccc3oc4cc(S(=O)(=O)N[C@H](C(=O)O)C(C)C)ccc4c3c2)cn1 [Compound 153, (S)-2-(8-(2-methoxypyrimidin-5-yl)dibenzo[b,d]furan-3-sulfonamido)-3-methylbutanoic acid]
8 | 32 | CC(C)c1nc(-c2ccc3c(c2)oc2cc(S(=O)(=O)N[C@H](C(=O)O)C(C)C)ccc23)no1 [Compound 154, (S)-2-(7-(5-isopropyl-1,2,4-oxadiazol-3-yl)dibenzo[b,d]furan-3-sulfonamido)-3-methylbutanoic acid]
9 | 223 | CC(C)[C@H](NS(=O)(=O)c1ccc2c(c1)oc1ccc(-c3cnn(CCN4CCOCC4)c3)cc12)C(=O)O [Compound 158, (S)-3-methyl-2-(8-(1-(2-morpholinoethyl)-1H-pyrazol-4-yl)dibenzo[b,d]furan-3-sulfonamido)butanoic acid]
10 | 6.2 | CC(C)Cn1cc(-c2ccc3oc4cc(S(=O)(=O)N[C@H](C(=O)O)C(C)C)ccc4c3c2)cn1 [Compound 159, (S)-2-(8-(1-isobutyl-1H-pyrazol-4-yl)dibenzo[b,d]furan-3-sulfonamido)-3-methylbutanoic acid]
11 | 22 | Cc1nn(C)c(C)c1-c1ccc2oc3cc(S(=O)(=O)N[C@H](C(=O)O)C(C)C)ccc3c2c1 [Compound 160, (S)-3-methyl-2-(8-(1,3,5-trimethyl-1H-pyrazol-4-yl)dibenzo[b,d]furan-3-sulfonamido)butanoic acid]
12 | 82 | Cc1onc(-c2ccccc2)c1-c1ccc2oc3cc(S(=O)(=O)N[C@H](C(=O)O)C(C)C)ccc3c2c1 [Compound 161, (S)-3-methyl-2-(8-(5-methyl-3-phenylisoxazol-4-yl)dibenzo[b,d]furan-3-sulfonamido)butanoic acid]
13 | < 1.5 | Cc1c(-c2ccc3oc4cc(S(=O)(=O)N[C@H](C(=O)O)C(C)C)ccc4c3c2)cnn1-c1ccccc1 [Compound 162, (S)-3-methyl-2-(8-(5-methyl-1-phenyl-1H-pyrazol-4-yl)dibenzo[b,d]furan-3-sulfonamido)butanoic acid]
14 | 93 | CCc1ccc(-c2cc(-c3ccc4c(c3)oc3cc(S(=O)(=O)N[C@H](C(=O)O)C(C)C)ccc34)sc2CC)s1 [Compound 166, (S)-2-(7-(2′,5-diethyl-2,3′-bithiophen-5′-yl)dibenzo[b,d]furan-3-sulfonamido)-3-methylbutanoic acid]
15 | < 1.5 | CC(C)[C@@H](NS(=O)(=O)c1ccc2oc3cc(-c4cncnc4)ccc3c2c1)C(=O)O [Compound 167, (R)-3-methyl-2-(7-(pyrimidin-5-yl)dibenzo[b,d]furan-2-sulfonamido)butanoic acid]
16 | 11 | Cc1nc(C)c(-c2ccc3c(c2)oc2ccc(S(=O)(=O)N[C@@H](C(=O)O)C(C)C)cc23)s1 [Compound 169, (R)-2-(7-(2,4-dimethylthiazol-5-yl)dibenzo[b,d]furan-2-sulfonamido)-3-methylbutanoic acid]

More lines, now with the values behind:

Row | SMILES | IC50 [nM]
17 | CC(C)c1nc(-c2ccc3c(c2)oc2ccc(S(=O)(=O)N[C@@H](C(=O)O)C(C)C)cc23)no1 [Compound 138, (R)-2-(7-(5-isopropyl-1,2,4-oxadiazol-3-yl)dibenzo[b,d]furan-2-sulfonamido)-3-methylbutanoic acid] | 2.8
18 | Cc1nc(-c2ccc3c(c2)oc2ccc(S(=O)(=O)N[C@@H](C(=O)O)C(C)C)cc23)no1 [Compound 139, (R)-3-methyl-2-(7-(5-methyl-1,2,4-oxadiazol-3-yl)dibenzo[b,d]furan-2-sulfonamido)butanoic acid] | 9.2
19 | CC(C)[C@H](NS(=O)(=O)c1ccc2c(c1)oc1cc(-c3cc4ccccc4o3)ccc12)C(=O)O [Compound 143, (S)-2-(7-(benzofuran-2-yl)dibenzo[b,d]furan-3-sulfonamido)-3-methylbutanoic acid] | 1.1
20 | CC(C)[C@@H](NS(=O)(=O)c1ccc2oc3cc(-c4ccc(Br)s4)ccc3c2c1)C(=O)O [Compound 144, (R)-2-(7-(5-bromothiophen-2-yl)dibenzo[b,d]furan-2-sulfonamido)-3-methylbutanoic acid] | 2.2
21 | Cc1noc(C)c1-c1ccc2c(c1)oc1ccc(S(=O)(=O)N[C@@H](C(=O)O)C(C)C)cc12 [Compound 145, (R)-2-(7-(3,5-dimethylisoxazol-4-yl)dibenzo[b,d]furan-2-sulfonamido)-3-methylbutanoic acid] | 29
22 | Cc1nnc(-c2ccc3oc4cc(S(=O)(=O)N[C@H](C(=O)O)C(C)C)ccc4c3c2)s1 [Compound 146, (S)-3-methyl-2-(8-(5-methyl-1,3,4-thiadiazol-2-yl)dibenzo[b,d]furan-3-sulfonamido)butanoic acid] | 1.7
23 | CC(C)[C@@H](NS(=O)(=O)c1ccc2oc3cc(-c4noc(C5CC5)n4)ccc3c2c1)C(=O)O [Compound 147, (R)-2-(7-(5-cyclopropyl-1,2,4-oxadiazol-3-yl)dibenzo[b,d]furan-2-sulfonamido)-3-methylbutanoic acid] | < 1.5
24 | CC(C)[C@@H](NS(=O)(=O)c1ccc2oc3cc(-c4noc(C5CCC5)n4)ccc3c2c1)C(=O)O [Compound 148, (R)-2-(7-(5-cyclobutyl-1,2,4-oxadiazol-3-yl)dibenzo[b,d]furan-2-sulfonamido)-3-methylbutanoic acid] | < 1.5
25 | CC(C)[C@H](NS(=O)(=O)c1ccc2c(c1)oc1cc(-c3noc(C(C)(C)C)n3)ccc12)C(=O)O [Compound 155, (S)-2-(7-(5-tert-butyl-1,2,4-oxadiazol-3-yl)dibenzo[b,d]furan-3-sulfonamido)-3-methylbutanoic acid] | 11
26 | Cc1nc(-c2ccc3c(c2)oc2cc(S(=O)(=O)N[C@H](C(=O)O)C(C)C)ccc23)no1 [Compound 156, (S)-3-methyl-2-(7-(5-methyl-1,2,4-oxadiazol-3-yl)dibenzo[b,d]furan-3-sulfonamido)butanoic acid] | 6.9
27 | CCC(C)Cn1cc(-c2ccc3oc4cc(S(=O)(=O)N[C@H](C(=O)O)C(C)C)ccc4c3c2)cn1 (stereo partly drawn) [Compound 157, (2S)-3-methyl-2-(8-(1-(2-methylbutyl)-1H-pyrazol-4-yl)dibenzo[b,d]furan-3-sulfonamido)butanoic acid] | 15
28 | Cc1nc(-c2ccccc2)sc1-c1ccc2oc3cc(S(=O)(=O)N[C@H](C(=O)O)C(C)C)ccc3c2c1 [Compound 163, (S)-3-methyl-2-(8-(4-methyl-2-phenylthiazol-5-yl)dibenzo[b,d]furan-3-sulfonamido)butanoic acid] | 170
29 | Cc1nc(-c2ccc(C(F)(F)F)cc2)sc1-c1ccc2oc3cc(S(=O)(=O)N[C@H](C(=O)O)C(C)C)ccc3c2c1 [Compound 164, (S)-3-methyl-2-(8-(4-methyl-2-(4-(trifluoromethyl)phenyl)thiazol-5-yl)dibenzo[b,d]furan-3-sulfonamido)butanoic acid] | 12.3
30 | CCc1sc(-c2ccc3c(c2)oc2cc(S(=O)(=O)N[C@H](C(=O)O)C(C)C)ccc23)cc1Br [Compound 165, (S)-2-(7-(4-bromo-5-ethylthiophen-2-yl)dibenzo[b,d]furan-3-sulfonamido)-3-methylbutanoic acid] | 1.5
31 | COc1ncc(-c2ccc3c(c2)oc2ccc(S(=O)(=O)N[C@@H](C(=O)O)C(C)C)cc23)cn1 [Compound 168, (R)-2-(7-(2-methoxypyrimidin-5-yl)dibenzo[b,d]furan-2-sulfonamido)-3-methylbutanoic acid] | 1.5
32 | CCC(C)Cn1cc(-c2ccc3c(c2)oc2ccc(S(=O)(=O)N[C@@H](C(=O)O)C(C)C)cc23)cn1 (stereo partly drawn) [Compound 170, (2R)-3-methyl-2-(7-(1-(2-methylbutyl)-1H-pyrazol-4-yl)dibenzo[b,d]furan-2-sulfonamido)butanoic acid] | 5.2
33 | CCCn1cc(-c2ccc3c(c2)oc2ccc(S(=O)(=O)N[C@@H](C(=O)O)C(C)C)cc23)cn1 [Compound 171, (R)-3-methyl-2-(7-(1-propyl-1H-pyrazol-4-yl)dibenzo[b,d]furan-2-sulfonamido)butanoic acid] | 3.9
34 | CC(C)[C@@H](NS(=O)(=O)c1ccc2oc3cc(-c4cnn(CCN5CCOCC5)c4)ccc3c2c1)C(=O)O [Compound 172, (R)-3-methyl-2-(7-(1-(2-morpholinoethyl)-1H-pyrazol-4-yl)dibenzo[b,d]furan-2-sulfonamido)butanoic acid] | 19

Source: US20100227859A1, “TRICYCLIC COMPOUNDS AS MATRIX METALLOPROTEINASE INHIBITORS” (priority 2007, published 2010)
